Assays:
[1] = target: Myosin light chain kinase (Homo sapiens) (UniProt Q32MK0); conditions: Compound concentration 1000.0 nM
[2] = tested on: Serine/threonine-protein kinase B-raf (Homo sapiens), P15056 [V600E]; conditions: Compound concentration 1000.0 nM
[3] = target: Misshapen-like kinase 1 (Homo sapiens) (UniProt Q8N4C8); conditions: Compound concentration 1000.0 nM
[4] = target: cGMP-dependent protein kinase 2 (Homo sapiens) (UniProt Q13237); conditions: Compound concentration 1000.0 nM
[5] = target: Mitogen-activated protein kinase kinase kinase 4 (Homo sapiens) (UniProt Q9Y6R4); conditions: Compound concentration 1000.0 nM
[6] = target: Cytoplasmic tyrosine-protein kinase BMX (Homo sapiens) (UniProt P51813); conditions: Compound concentration 1000.0 nM
[7] = target: Rho-associated protein kinase 2 (Homo sapiens) (UniProt O75116); conditions: Compound concentration 1000.0 nM
[8] = target: Dual specificity mitogen-activated protein kinase kinase 3 (Homo sapiens) (UniProt P46734); conditions: Compound concentration 1000.0 nM
[9] = target: Tyrosine-protein kinase JAK2 (Homo sapiens) (UniProt O60674); conditions: Compound concentration 1000.0 nM
Sequence of Tyrosine-protein kinase JAK2 (Homo sapiens) (O60674 whole entry): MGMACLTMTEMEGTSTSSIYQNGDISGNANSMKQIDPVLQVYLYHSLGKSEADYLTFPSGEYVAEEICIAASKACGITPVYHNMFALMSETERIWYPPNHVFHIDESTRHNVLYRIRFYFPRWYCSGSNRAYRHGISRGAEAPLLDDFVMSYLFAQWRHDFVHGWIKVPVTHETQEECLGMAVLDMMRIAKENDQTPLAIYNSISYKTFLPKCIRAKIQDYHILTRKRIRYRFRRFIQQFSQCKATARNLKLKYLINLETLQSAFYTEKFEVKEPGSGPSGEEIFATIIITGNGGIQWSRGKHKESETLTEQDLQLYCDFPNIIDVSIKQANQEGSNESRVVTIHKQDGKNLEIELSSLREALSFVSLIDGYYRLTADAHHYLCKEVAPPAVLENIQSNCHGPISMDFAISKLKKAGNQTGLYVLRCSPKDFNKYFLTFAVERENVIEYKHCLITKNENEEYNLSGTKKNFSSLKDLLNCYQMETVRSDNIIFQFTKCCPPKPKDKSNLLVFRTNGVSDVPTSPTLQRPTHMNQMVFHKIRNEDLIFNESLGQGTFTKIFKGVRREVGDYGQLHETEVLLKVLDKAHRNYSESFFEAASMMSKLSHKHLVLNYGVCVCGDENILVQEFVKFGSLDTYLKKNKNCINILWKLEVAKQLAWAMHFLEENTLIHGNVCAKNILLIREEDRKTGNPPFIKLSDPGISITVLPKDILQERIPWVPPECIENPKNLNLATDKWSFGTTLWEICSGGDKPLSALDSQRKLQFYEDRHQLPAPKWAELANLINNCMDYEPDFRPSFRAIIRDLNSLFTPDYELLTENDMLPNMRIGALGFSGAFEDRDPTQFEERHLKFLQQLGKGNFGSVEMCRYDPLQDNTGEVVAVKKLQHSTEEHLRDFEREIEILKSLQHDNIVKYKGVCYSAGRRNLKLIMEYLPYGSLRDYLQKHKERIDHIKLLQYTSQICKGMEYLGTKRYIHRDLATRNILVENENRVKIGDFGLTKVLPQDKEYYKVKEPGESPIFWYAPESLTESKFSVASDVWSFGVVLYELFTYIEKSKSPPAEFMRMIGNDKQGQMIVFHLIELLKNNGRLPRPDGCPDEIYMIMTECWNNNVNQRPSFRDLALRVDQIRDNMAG

[10] = target: Dual specificity mitogen-activated protein kinase kinase 7 (Homo sapiens) (UniProt O14733); conditions: Compound concentration 1000.0 nM
[11] = target: Tyrosine-protein kinase Mer (Homo sapiens) (UniProt Q12866); conditions: Compound concentration 1000.0 nM
[12] = target: Fibroblast growth factor receptor 3 (Homo sapiens) (UniProt P22607); conditions: Compound concentration 1000.0 nM
Sequence of Fibroblast growth factor receptor 3 (Homo sapiens) (P22607 23-806 limits assumed): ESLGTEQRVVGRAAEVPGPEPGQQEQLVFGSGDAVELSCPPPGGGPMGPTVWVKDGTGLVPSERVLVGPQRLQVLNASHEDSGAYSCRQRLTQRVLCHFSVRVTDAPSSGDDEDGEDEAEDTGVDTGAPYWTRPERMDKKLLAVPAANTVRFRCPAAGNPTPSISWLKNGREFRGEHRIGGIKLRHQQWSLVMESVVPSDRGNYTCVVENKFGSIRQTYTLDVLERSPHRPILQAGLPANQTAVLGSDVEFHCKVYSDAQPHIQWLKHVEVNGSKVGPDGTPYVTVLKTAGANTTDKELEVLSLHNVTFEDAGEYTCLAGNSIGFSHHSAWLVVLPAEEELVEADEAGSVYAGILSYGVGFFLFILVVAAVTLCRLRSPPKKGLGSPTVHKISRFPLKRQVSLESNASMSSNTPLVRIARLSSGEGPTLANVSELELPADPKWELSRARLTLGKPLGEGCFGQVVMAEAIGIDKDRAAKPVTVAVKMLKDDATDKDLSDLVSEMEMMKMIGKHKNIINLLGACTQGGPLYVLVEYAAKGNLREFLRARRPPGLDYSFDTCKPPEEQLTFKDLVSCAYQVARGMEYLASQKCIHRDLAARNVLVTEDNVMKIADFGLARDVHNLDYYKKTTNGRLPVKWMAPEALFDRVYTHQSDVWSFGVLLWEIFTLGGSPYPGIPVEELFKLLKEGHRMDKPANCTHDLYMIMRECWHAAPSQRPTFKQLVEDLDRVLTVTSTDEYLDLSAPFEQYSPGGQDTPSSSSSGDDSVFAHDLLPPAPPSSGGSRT

[13] = target: Mitogen-activated protein kinase kinase kinase kinase 4 (Homo sapiens) (UniProt O95819); conditions: Compound concentration 1000.0 nM
[14] = tested on: Phosphatidylinositol 4,5-bisphosphate 3-kinase catalytic subunit alpha isoform (Homo sapiens), P42336 [M1043I]; conditions: Compound concentration 1000.0 nM
[15] = target: Myotonin-protein kinase (Homo sapiens) (UniProt Q09013); conditions: Compound concentration 1000.0 nM
[16] = target: 5-hydroxytryptamine receptor 1E (Homo sapiens) (UniProt P28566); conditions: Compound concentration 10.0 uM
[17] = target: Muscarinic acetylcholine receptor M2 (Homo sapiens) (UniProt P08172); conditions: Compound concentration 10.0 uM
[18] = target: Death-associated protein kinase 3 (Homo sapiens) (UniProt O43293); conditions: Compound concentration 1000.0 nM
[19] = target: Phosphatidylinositol 4-phosphate 5-kinase type-1 alpha (Homo sapiens) (UniProt Q99755); conditions: Compound concentration 1000.0 nM
[20] = target: Dual specificity protein kinase CLK2 (Homo sapiens) (UniProt P49760); conditions: Compound concentration 1000.0 nM
[21] = target: Serine/threonine-protein kinase NLK (Homo sapiens) (UniProt Q9UBE8); conditions: Compound concentration 1000.0 nM
[22] = target: D(4) dopamine receptor (Homo sapiens) (UniProt P21917); conditions: Compound concentration 10.0 uM
Sequence of D(4) dopamine receptor (Homo sapiens) (P21917 whole entry): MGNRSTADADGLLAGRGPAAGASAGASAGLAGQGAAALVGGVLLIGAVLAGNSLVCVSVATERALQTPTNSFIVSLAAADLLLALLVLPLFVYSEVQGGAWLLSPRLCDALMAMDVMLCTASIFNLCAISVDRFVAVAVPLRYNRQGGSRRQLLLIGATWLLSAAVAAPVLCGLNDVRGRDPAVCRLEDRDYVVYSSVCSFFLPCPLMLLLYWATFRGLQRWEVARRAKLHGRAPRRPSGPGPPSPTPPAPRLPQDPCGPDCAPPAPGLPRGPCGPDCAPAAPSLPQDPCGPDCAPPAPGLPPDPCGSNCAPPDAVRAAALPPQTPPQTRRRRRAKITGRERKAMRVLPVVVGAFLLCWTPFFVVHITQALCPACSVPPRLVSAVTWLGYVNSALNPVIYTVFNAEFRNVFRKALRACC

[23] = target: D(1A) dopamine receptor (Homo sapiens) (UniProt P21728); conditions: Compound concentration 10.0 uM
[24] = target: Cyclin-dependent kinase 4 (Homo sapiens) (UniProt P11802); conditions: Compound concentration 1000.0 nM
[25] = tested on: Receptor-type tyrosine-protein kinase FLT3 (Homo sapiens), P36888 [N841I]; conditions: Compound concentration 1000.0 nM
[26] = target: Mitogen-activated protein kinase kinase kinase 7 (Homo sapiens) (UniProt O43318); conditions: Compound concentration 1000.0 nM
[27] = target: MAP kinase-interacting serine/threonine-protein kinase 1 (Homo sapiens) (UniProt Q9BUB5); conditions: Compound concentration 1000.0 nM
[28] = target: Eukaryotic translation initiation factor 2-alpha kinase 1 (Homo sapiens) (UniProt Q9BQI3); conditions: Compound concentration 1000.0 nM
[29] = target: Cyclin-dependent kinase 3 (Homo sapiens) (UniProt Q00526); conditions: Compound concentration 1000.0 nM
[30] = target: Wee1-like protein kinase 2 (Homo sapiens) (UniProt P0C1S8); conditions: Compound concentration 1000.0 nM
[31] = target: Mitogen-activated protein kinase kinase kinase 2 (Homo sapiens) (UniProt Q9Y2U5); conditions: Compound concentration 1000.0 nM
[32] = target: Phosphorylase b kinase gamma catalytic chain, skeletal muscle/heart isoform (Homo sapiens) (UniProt Q16816); conditions: Compound concentration 1000.0 nM
Sequence of Phosphorylase b kinase gamma catalytic chain, skeletal muscle/heart isoform (Homo sapiens) (Q16816 whole entry, looked up, canonical isoform): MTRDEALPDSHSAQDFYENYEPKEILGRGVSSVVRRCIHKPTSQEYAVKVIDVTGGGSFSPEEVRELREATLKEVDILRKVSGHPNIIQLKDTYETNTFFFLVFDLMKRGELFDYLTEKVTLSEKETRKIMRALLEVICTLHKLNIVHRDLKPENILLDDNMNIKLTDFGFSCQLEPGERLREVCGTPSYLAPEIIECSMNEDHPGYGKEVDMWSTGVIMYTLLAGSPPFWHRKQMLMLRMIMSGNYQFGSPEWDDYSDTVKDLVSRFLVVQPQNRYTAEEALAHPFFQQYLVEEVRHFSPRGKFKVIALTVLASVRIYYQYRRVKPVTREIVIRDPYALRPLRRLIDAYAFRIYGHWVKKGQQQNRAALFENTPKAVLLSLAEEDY

[33] = target: ALK tyrosine kinase receptor (Homo sapiens) (UniProt Q9UM73); conditions: Compound concentration 1000.0 nM
[34] = tested on: Phosphatidylinositol 4,5-bisphosphate 3-kinase catalytic subunit alpha isoform (Homo sapiens), P42336 [I800L]; conditions: Compound concentration 1000.0 nM
[35] = target: Beta-adrenergic receptor kinase 1 (Homo sapiens) (UniProt P25098); conditions: Compound concentration 1000.0 nM
[36] = target: RAC-alpha serine/threonine-protein kinase (Homo sapiens) (UniProt P31749); conditions: Compound concentration 1000.0 nM
[37] = target: Tyrosine-protein kinase ABL2 (Homo sapiens) (UniProt P42684); conditions: Compound concentration 1000.0 nM
[38] = target: Serine/threonine-protein kinase 36 (Homo sapiens) (UniProt Q9NRP7); conditions: Compound concentration 1000.0 nM
[39] = target: Insulin receptor-related protein (Homo sapiens) (UniProt P14616); conditions: Compound concentration 1000.0 nM
[40] = tested on: Tyrosine-protein kinase ABL1 (Homo sapiens), P00519 [Q252H]; conditions: Compound concentration 1000.0 nM
[41] = target: Phosphatidylinositol 4-kinase beta (Homo sapiens) (UniProt Q9UBF8); conditions: Compound concentration 1000.0 nM
[42] = tested on: Hepatocyte growth factor receptor (Homo sapiens), P08581 [M1250T]; conditions: Compound concentration 1000.0 nM
[43] = target: Homeodomain-interacting protein kinase 4 (Homo sapiens) (UniProt Q8NE63); conditions: Compound concentration 1000.0 nM
Sequence of Homeodomain-interacting protein kinase 4 (Homo sapiens) (Q8NE63 whole entry): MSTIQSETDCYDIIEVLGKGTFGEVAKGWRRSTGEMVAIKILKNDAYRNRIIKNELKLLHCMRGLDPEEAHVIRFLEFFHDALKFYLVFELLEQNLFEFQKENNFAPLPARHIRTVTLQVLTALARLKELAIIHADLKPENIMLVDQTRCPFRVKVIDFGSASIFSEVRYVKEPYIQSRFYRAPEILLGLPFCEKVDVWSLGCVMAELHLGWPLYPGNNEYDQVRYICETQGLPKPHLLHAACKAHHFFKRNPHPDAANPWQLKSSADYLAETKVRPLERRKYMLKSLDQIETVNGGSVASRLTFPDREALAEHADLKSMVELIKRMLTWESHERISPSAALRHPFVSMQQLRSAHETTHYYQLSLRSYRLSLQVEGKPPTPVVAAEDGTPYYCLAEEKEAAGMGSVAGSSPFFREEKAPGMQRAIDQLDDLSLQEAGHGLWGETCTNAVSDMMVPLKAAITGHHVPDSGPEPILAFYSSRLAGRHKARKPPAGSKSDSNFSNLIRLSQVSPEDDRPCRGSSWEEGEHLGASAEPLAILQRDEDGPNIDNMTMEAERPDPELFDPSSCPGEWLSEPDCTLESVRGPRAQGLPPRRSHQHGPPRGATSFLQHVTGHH

[44] = target: Bone morphogenetic protein receptor type-1B (Homo sapiens) (UniProt O00238); conditions: Compound concentration 1000.0 nM
[45] = target: Phosphatidylinositol 5-phosphate 4-kinase type-2 beta (Homo sapiens) (UniProt P78356); conditions: Compound concentration 1000.0 nM

Sequence of Serine/threonine-protein kinase B-raf (Homo sapiens), P15056 [V600E] (P15056 whole entry V600E): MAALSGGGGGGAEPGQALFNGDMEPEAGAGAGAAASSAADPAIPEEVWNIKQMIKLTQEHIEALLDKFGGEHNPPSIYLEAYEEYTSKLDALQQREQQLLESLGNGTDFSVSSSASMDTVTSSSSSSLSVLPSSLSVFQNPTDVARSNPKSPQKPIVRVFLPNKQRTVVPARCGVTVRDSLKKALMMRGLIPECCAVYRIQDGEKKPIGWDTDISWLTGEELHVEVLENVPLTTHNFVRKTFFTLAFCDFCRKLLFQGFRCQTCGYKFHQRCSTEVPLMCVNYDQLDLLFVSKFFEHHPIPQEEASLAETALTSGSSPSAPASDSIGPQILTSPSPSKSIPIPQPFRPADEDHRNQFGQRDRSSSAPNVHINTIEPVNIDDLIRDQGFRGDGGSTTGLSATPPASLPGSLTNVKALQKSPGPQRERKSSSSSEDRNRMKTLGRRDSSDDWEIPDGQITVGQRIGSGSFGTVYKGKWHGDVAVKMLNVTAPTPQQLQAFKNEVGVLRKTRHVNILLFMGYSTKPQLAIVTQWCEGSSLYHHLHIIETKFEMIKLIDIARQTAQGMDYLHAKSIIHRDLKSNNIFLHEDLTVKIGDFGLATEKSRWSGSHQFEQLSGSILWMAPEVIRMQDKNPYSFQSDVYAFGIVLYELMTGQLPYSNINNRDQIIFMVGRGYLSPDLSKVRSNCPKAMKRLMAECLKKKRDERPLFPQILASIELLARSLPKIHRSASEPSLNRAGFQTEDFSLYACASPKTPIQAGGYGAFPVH
Sequence of cGMP-dependent protein kinase 2 (Homo sapiens) (Q13237 whole entry): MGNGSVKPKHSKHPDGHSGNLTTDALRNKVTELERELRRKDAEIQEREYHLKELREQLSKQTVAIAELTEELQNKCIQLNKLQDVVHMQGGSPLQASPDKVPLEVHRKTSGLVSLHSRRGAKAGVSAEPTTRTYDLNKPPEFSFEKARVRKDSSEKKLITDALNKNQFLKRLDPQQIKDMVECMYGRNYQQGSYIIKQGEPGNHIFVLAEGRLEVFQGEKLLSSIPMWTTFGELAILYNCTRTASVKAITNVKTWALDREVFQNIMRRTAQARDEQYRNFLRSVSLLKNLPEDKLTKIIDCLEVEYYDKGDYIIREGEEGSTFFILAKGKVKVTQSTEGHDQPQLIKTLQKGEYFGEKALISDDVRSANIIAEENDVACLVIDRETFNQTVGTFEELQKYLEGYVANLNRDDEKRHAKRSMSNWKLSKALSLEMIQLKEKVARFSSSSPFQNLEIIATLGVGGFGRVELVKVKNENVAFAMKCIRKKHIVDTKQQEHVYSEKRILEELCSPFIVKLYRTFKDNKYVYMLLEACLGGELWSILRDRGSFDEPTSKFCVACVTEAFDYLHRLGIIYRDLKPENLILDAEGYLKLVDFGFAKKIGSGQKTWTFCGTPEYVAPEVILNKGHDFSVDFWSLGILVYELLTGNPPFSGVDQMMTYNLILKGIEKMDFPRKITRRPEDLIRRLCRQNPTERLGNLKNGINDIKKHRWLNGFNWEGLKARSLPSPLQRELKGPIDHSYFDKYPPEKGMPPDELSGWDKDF

COc1cccc(CNC(=O)c2nc3scc(COCc4ccc(C(=O)O)cc4)c3c(=O)[nH]2)c1 [T-26c]
inactive: residual activity [1] 72.8% | residual activity [2] 79.8% | residual activity [3] 74.9% | residual activity [4] 100% | residual activity [5] 86.6% | residual activity [6] 100% | residual activity [7] 69.1% | residual activity [8] 92.9% | residual activity [9] 100% | residual activity [10] 81.2% | residual activity [11] 88.3% | residual activity [12] 100% | residual activity [13] 92.3% | residual activity [14] 100% | residual activity [15] 85.4% | inhibition [16] -0.179% | inhibition [17] -2.95% | residual activity [18] 92.2% | residual activity [19] 100% | residual activity [20] 92.4% | residual activity [21] 80.3% | inhibition [22] 13.9% | inhibition [23] -6.24% | residual activity [24] 61.7% | residual activity [25] 100% | residual activity [26] 60.2% | residual activity [27] 83.1% | residual activity [28] 88% | residual activity [29] 100% | residual activity [30] 96.9% | residual activity [31] 65.5% | residual activity [32] 100% | residual activity [33] 92% | residual activity [34] 77.2% | residual activity [35] 50.1% | residual activity [36] 99.9% | residual activity [37] 82.2% | residual activity [38] 100% | residual activity [39] 100% | residual activity [40] 91.4% | residual activity [41] 59.9% | residual activity [42] 98% | residual activity [43] 94.3% | residual activity [44] 64.5% | residual activity [45] 100%

Reference: ChEMBL document CHEMBL4507300 (2021)
